# Assay: Population pharmacokinetic (PPK) analysis, nonlinear mixed effects model, two-compartment model
# Type: in vivo, patients and healthy adults
# Description: The memory unit 12 stores pre-constructed PK (pharmacokinetics) model information. Specifically, it stores a blood concentration calculation formula for the active ingredient sirolimus when the drug is repeatedly administered, a parameter calculation formula for calculating parameters corresponding to patient information, and pre-constructed estimated values of pharmacokinetic parameters. The blood concentration calculation formula is a formula that expresses the blood sirolimus concentration based on a two-compartment model. The parameters corresponding to patient information are parameters used in the blood concentration calculation formula, and are standard parameters for estimating the blood sirolimus concentration of patients who have the same patient information (also referred to as “patient background”). In this document, these are referred to as “standard PK parameters”.
# Here, ka is the absorption rate constant (h−1), Cl/F is the clearance (L/h), V1/F is the volume of the first compartment (L), V2/F is the volume of the second compartment (L), and Q/F is the intercompartmental clearance […]. The values of these parameters are related to the patient's weight and age, the dosage form of the administered drug, and the presence or absence of concomitant use of a CYP3A4 inhibitor or CYP3A4 inducer. Di is the dose of the drug.
# Each parameter in the blood concentration calculation formula is expressed as a function with the patient's weight and age, the dosage form of the drug, etc. as variables. This function corresponds to the parameter calculation formula for calculating the parameters corresponding to the patient. This parameter calculation formula is obtained in advance by population pharmacokinetic analysis using a nonlinear mixed effects model.
# In formula (2), TVka is the typical value of the absorption rate constant ka, and is obtained in advance by population pharmacokinetic analysis. In this embodiment, the point estimate of TVKa is 0.235 (h−1), the relative error is 1.17%, and the 95% confidence interval is 0.229-0.240.
# In formula (3), TVCl is a typical value of clearance Cl/F, and is obtained in advance by population pharmacokinetic analysis. In this embodiment, the point estimate of TVCl is 6.44 (L/h), the relative error is 6.04%, and the width of the 95% confidence interval is 5.72-7.25. WT is the patient's body weight. PMA (Post menstrual age) is the age after the last menstrual period (gestational age+postnatal age) and corresponds to the patient's age. e^ηCL represents inter-individual variation. When there is no actual measured value for the patient, ηCL is 0, and the inter-individual variation is 1. “Clinical trials assay” refers to a blood sample stored frozen, and in the case of a blood sample stored frozen, it is multiplied by 1.92. In the case of a blood sample stored refrigerated, it is multiplied by 1. “CYP3A4 fold change” is a coefficient that is determined according to the concomitant drug when there is a concomitant drug. The coefficient will be described later with reference to FIG. 9.
# In formula (4), TVV1 is a typical value of the volume of the first compartment V1/F, and is obtained in advance by population pharmacokinetic analysis. In the embodiment, the point estimate of TVV1 is 176 (L), the relative error is 2.43%, and the width of the 95% confidence interval is 168-185. WT is the patient's body weight. eηV1 represents inter-individual variation. When there is no actual measured value for the patient, ηV1 is 0, and the inter-individual variation is 1. Depending on the information that can be obtained, it may be difficult to estimate the random effect of the patient on V1, and in such a case, the inter-individual variation for V1 may be set to 1 for all patients.
# In formula (5), TVV2 is the typical value of the volume of the second compartment V2/F, and is determined in advance by population pharmacokinetic analysis. […]
structure (smiles),measurement,setting,value
CO[C@H]1C[C@@H]2CC[C@@H](C)[C@@](O)(O2)C(=O)C(=O)N2CCCC[C@H]2C(=O)O[C@H]([C@H](C)C[C@@H]2CC[C@@H](O)[C@H](OC)C2)CC(=O)[C@H](C)/C=C(\C)[C@@H](O)[C@@H](OC)C(=O)[C@H](C)C[C@H](C)/C=C/C=C/C=C/1C [sirolimus],"TVka, typical value of the absorption rate constant ka (point estimate)","population pharmacokinetic analysis, relative error 1.17%, 95% confidence interval 0.229-0.240",0.235 h⁻¹
same,"TVV1, typical value of the volume of the first compartment V1/F (point estimate)","population pharmacokinetic analysis, relative error 2.43%, 95% confidence interval 168-185",176 L
same,"TVQ, typical value of the intercompartmental clearance Q/F (point estimate)","population pharmacokinetic analysis, relative error 4.07%, 95% confidence interval 31.0-36.3",33.6 L/h
same,"TVCl, typical value of clearance Cl/F (point estimate)","population pharmacokinetic analysis, relative error 6.04%, 95% confidence interval 5.72-7.25",6.44 L/h
same,"TVV2, typical value of the volume of the second compartment V2/F (point estimate)","population pharmacokinetic analysis, relative error 13%, 95% confidence interval 218-362",281 L
same,factor by which TVka is multiplied,"when the drug is a granule (Granule formulation), formula (2)",4.26

# — patent publication US20260137664A1, “THERAPEUTIC AGENT FOR INTRACTABLE LYMPHATIC DISEASE AND INTRACTABLE VASCULAR DISEASE” (NATIONAL UNIVERSITY CORPORATION TOKAI NATIONAL HIGHER …, priority 2022, published 2026)
